Experimental data published in BindingDB's records for doi:10.1021/jm00087a023 (American Cyanamid, 1992).
pIC50: −log10 of the molar value.

Test: Inhibition of PAF induced platelet aggregation in rabbit

Work on CCCCCCCCCCCCCCOc1cccc(OP(=O)([O-])Oc2cccc(C[n+]3c[nH]c4ccccc43)c2)c1OC yielded a pIC50 of 5.83.

With CCCCCCCCCCCCCCCCOCC(COP(=O)(O)Oc1cccc(C[P+](c2ccccc2)(c2ccccc2)c2ccccc2)c1)OC (configuration not stated) the pIC50 was 4.87.
